According to patent publication US10168342B2, “Lipid probes and uses thereof” (THE SCRIPPS RESEARCH INSTITUTE, priority 2015, dated 2019):

Assays:
Test in all cases: In situ competitive SILAC profiling with A-DA probe in (PMA-stimulated) A549 cells
Conditions in all cases: A549 cells, A-DA probe
[1] = molecular target: T1, A-DA lipid probe targets in A549 cells (Homo sapiens, UniProt Q8NF37)
T1 sequence (Q8NF37 1-534): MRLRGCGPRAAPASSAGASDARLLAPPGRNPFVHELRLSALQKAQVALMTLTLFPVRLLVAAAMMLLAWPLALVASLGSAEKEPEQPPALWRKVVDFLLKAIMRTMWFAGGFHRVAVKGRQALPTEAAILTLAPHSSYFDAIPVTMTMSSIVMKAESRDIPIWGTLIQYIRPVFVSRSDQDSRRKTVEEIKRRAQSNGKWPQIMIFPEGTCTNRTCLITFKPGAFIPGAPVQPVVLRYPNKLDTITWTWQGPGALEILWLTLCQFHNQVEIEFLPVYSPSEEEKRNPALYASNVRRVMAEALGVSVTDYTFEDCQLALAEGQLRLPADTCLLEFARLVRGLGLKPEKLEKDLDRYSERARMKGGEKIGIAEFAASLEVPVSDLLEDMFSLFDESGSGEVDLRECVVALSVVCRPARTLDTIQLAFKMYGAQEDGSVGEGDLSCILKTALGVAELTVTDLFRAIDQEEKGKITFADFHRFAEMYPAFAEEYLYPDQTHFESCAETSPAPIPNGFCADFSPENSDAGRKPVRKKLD

[2] = molecular target: T2, A-DA lipid probe targets in A549 cells (Homo sapiens, UniProt P45880)
T2 sequence (P45880 1-294): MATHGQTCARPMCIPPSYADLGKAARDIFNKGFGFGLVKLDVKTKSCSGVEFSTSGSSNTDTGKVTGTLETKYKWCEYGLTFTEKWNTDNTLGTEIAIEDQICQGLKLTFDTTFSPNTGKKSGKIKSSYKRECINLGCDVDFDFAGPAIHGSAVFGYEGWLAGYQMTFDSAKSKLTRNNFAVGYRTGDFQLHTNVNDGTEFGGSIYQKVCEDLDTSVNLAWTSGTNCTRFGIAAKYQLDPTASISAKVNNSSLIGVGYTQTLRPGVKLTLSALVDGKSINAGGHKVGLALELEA

[3] = molecular target: T3, A-DA lipid probe targets in A549 cells (Homo sapiens, UniProt P35354)
T3 sequence (P35354 18-604): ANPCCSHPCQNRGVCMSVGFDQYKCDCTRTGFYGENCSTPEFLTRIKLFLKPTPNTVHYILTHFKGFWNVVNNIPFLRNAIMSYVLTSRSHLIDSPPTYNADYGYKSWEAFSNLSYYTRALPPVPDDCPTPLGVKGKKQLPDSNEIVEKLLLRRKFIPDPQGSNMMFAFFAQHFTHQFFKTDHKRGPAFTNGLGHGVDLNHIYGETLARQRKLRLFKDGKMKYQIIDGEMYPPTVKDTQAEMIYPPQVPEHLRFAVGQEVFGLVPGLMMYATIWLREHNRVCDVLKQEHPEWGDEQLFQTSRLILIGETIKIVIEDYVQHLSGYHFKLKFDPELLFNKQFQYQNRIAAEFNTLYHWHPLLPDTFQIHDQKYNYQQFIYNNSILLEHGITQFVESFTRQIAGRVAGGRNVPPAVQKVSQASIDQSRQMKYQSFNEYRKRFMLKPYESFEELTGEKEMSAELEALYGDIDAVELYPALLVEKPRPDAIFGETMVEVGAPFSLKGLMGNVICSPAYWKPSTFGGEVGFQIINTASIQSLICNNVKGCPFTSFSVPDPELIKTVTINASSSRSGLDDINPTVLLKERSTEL

[4] = molecular target: T4, A-DA lipid probe targets in A549 cells (Homo sapiens, UniProt O95470)
T4 sequence (O95470 1-568): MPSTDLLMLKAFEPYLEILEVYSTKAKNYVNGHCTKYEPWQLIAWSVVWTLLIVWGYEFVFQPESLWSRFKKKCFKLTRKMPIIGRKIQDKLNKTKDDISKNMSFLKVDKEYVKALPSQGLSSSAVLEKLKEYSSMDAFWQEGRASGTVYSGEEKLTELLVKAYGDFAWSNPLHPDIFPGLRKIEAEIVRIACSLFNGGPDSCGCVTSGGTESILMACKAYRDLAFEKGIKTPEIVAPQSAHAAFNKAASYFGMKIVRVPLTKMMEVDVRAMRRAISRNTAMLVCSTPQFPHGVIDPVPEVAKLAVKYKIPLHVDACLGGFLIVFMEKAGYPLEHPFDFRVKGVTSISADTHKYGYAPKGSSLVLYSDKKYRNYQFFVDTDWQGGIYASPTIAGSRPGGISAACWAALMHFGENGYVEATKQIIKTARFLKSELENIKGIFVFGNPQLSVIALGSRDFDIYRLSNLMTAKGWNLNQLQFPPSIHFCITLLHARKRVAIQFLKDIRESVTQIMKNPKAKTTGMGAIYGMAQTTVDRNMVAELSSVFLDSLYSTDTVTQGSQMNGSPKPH

[5] = molecular target: T5, A-DA lipid probe targets in A549 cells (Homo sapiens, UniProt P07602)
T5 sequence (P07602 60-524): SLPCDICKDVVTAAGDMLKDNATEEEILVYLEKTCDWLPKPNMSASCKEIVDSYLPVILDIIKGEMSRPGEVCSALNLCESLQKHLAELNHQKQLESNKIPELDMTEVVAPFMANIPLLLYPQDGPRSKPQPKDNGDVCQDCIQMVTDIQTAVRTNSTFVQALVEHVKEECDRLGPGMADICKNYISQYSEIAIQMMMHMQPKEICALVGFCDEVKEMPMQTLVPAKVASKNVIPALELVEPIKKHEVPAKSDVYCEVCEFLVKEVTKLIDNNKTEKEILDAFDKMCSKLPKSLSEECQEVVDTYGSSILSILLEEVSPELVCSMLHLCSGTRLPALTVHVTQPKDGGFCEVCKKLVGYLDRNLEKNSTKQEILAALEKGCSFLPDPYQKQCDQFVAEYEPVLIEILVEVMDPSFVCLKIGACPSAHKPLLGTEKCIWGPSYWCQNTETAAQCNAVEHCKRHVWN

Row | SMILES | SILAC ratio, LPCAT1 (Q8NF37) ([1]; competitor 25 μM) | SILAC ratio, VDAC2 (P45880) ([2]; competitor 25 μM) | SILAC ratio, PTGS2 (P35354) ([3]; competitor 25 μM) | SILAC ratio, SGPL1 (O95470) ([4]; competitor 25 μM) | SILAC ratio, PSAP (P07602) ([5]; competitor 25 μM) | SILAC ratio, LPCAT1 (Q8NF37) ([1]; competitor 5 μM) | SILAC ratio, LPCAT1 (Q8NF37) ([1]; competitor 50 μM) | SILAC ratio, VDAC2 (P45880) ([2]; competitor 5 μM) | SILAC ratio, VDAC2 (P45880) ([2]; competitor 50 μM) | SILAC ratio, PTGS2 (P35354) ([3]; competitor 5 μM) | SILAC ratio, PTGS2 (P35354) ([3]; competitor 50 μM) | SILAC ratio, SGPL1 (O95470) ([4]; competitor 5 μM) | SILAC ratio, SGPL1 (O95470) ([4]; competitor 50 μM) | SILAC ratio, PSAP (P07602) ([5]; competitor 5 μM) | SILAC ratio, PSAP (P07602) ([5]; competitor 50 μM)
1 | O=C(/C=C/c1cccnc1)NCCCCC1CCN(C(=O)c2ccccc2)CC1 [FK-866, reference compound] | 1.4 | 1.2 | 1.9 | 1.2 | 1.2 |  |  |  |  |  |  |  |  |  | 
2 | C=CCN(C)CCCCCCOc1ccc(C(=O)c2ccc(Br)cc2)c(F)c1 [Ro488071] |  |  |  |  |  | 1.6 | 3.1 | 1.5 | 3.4 | 2.5 | 3.3 | 1.5 | 3.0 | 2.3 | 3.1
